How the values were obtained:
clinical = conditions: human, in vivo; for Vd/F: Vss/F
Experimental: The development of the previously described embodiments resulted from a long drug development process. […] The study was also designed to assess the pharmacokinetic and pharmacodynamic profiles of multiple daily oral doses over a range of doses and ranges, including both once-daily and twice-daily administration.
Samples were analyzed by high performance liquid chromatography.

[1] = Absorption of febuxostat from various regions of the gastro-intestinal tract in rats; format: in vivo, rat
Excerpt: The pharmacokinetic data obtained in the clinical trial referenced above was subsequently used to develop estimated plasma profiles for various febuxostat formulations, including extended release matrix tablets, two-pulse febuxostat formulations, and three-pulse febuxostat formulations. The estimated extended release formulation data was based on a matrix formulation incorporating one or more polymers, and the estimated two-pulse and three-pulse formulation data was based on a formulation incorporating two or more types of beads with differing release profiles. This information and methodology is discussed in Example 2. Additionally, as part of the development process for an extended release febuxostat formulation, various sites of absorption were investigated to determine the optimal physiologic sites of drug absorption for an extended release febuxostat formulation. In early pre-clinical studies, absorption of febuxostat from various regions of the gastro-intestinal tract was studied in rats. […] To guide development of a dosage form that provided the desired plasma concentration-time profile, a site of absorption study was conducted in humans.

SMILES: Cc1nc(-c2ccc(OCC(C)C)c(C#N)c2)sc1C(=O)O [Febuxostat, 2-[3-cyano-4-(2-methylpropoxy)phenyl]-4-methylthiazole-5-carboxylic acid]
- Vd (clinical): ~0.7 L/kg
- half-life (clinical): ~360 min
- Cmax (clinical; 10 mg): 399.5 ng/mL
- Tmax (clinical; 10 mg): 0.70 h
- Vss/F (clinical; 10 mg): 42.7 L
- AUC (clinical; 10 mg, AUC (AUC24)): 950 ng·h/mL
- AUC(0-inf) (clinical; 10 mg): 727 ng·h/mL
- Cmax (clinical; 10 mg, Cmax): 336 ng/mL
- Vd/F (clinical; 10 mg): 38.2 L
- Tmax (clinical; 10 mg, tmax): 0.99 h
- Cmax (clinical; 20 mg): 934.2 ng/mL
- Vss/F (clinical; 20 mg): 33.3 L
- AUC (clinical; 20 mg, AUC (AUC24)): 2110 ng·h/mL
- AUC(0-inf) (clinical; 20 mg): 2180 ng·h/mL
- Cmax (clinical; 20 mg, Cmax): 1110 ng/mL
- Vd/F (clinical; 20 mg): 29.2 L
- Tmax (clinical; 20 mg, tmax): 1.06 h
- AUC (AUC12) (clinical; 30 mg): 3.3083 µg·h/mL
- AUC (AUC∞) (clinical; 30 mg): 2.8169 µg·h/mL
- AUC (clinical; 30 mg, AUC (AUC12)): 2910 ng·h/mL
- AUC (clinical; 30 mg, AUC (AUC24)): 2570 ng·h/mL
- AUC(0-inf) (clinical; 30 mg): 2550 ng·h/mL
- Cmax (clinical; 30 mg, Cmax): 1120 ng/mL
- Cmax (clinical; 40 mg): 1822.1 ng/mL
- Vss/F (clinical; 40 mg): 49.5 L
- AUC (clinical; 40 mg, AUC (AUC24)): 4300 ng·h/mL
- AUC(0-inf) (clinical; 40 mg): 3980 ng·h/mL
- Cmax (clinical; 40 mg, Cmax): 1530 ng/mL
- Vd/F (clinical; 40 mg): 48.7 L
- Tmax (clinical; 40 mg, tmax): 1.44 h
- Cmax (clinical; 50 mg): 1791.7 ng/mL
- Vss/F (clinical; 50 mg): 59.1 L
- AUC (clinical; 50 mg, AUC (AUC24)): 4380 ng·h/mL
- AUC(0-inf) (clinical; 50 mg): 4410 ng·h/mL
- Cmax (clinical; 50 mg, Cmax): 1970 ng/mL
- Vd/F (clinical; 50 mg): 43.2 L
- Tmax (clinical; 50 mg, tmax): 0.78 h
- Cmax (clinical; 70 mg): 2689.9 ng/mL
- Vss/F (clinical; 70 mg): 54.1 L
- AUC (clinical; 70 mg, AUC (AUC24)): 6950 ng·h/mL
- AUC(0-inf) (clinical; 70 mg): 6930 ng·h/mL
- Cmax (clinical; 70 mg, Cmax): 3080 ng/mL
- Vd/F (clinical; 70 mg): 41.6 L
- Tmax (clinical; 70 mg, tmax): 1 h
- Cmax (clinical; 90 mg): 4058.9 ng/mL
- Vss/F (clinical; 90 mg): 63.7 L
- AUC (clinical; 90 mg, AUC (AUC24)): 9650 ng·h/mL
- AUC(0-inf) (clinical; 90 mg): 9090 ng·h/mL
- Cmax (clinical; 90 mg, Cmax): 3480 ng/mL
- Vd/F (clinical; 90 mg): 56.7 L
- Tmax (clinical; 90 mg, tmax): 0.95 h
- Cmax (clinical; 120 mg): 5307.6 ng/mL
- Vss/F (clinical; 120 mg): 55.1 L
- AUC (clinical; 120 mg, AUC (AUC24)): 12000 ng·h/mL
- AUC(0-inf) (clinical; 120 mg): 11300 ng·h/mL
- Cmax (clinical; 120 mg, Cmax): 4470 ng/mL
- Vd/F (clinical; 120 mg): 57.8 L
- Tmax (clinical; 120 mg, tmax): 1 h
- Cmax (clinical; 160 mg): 8771.1 ng/mL
- Vss/F (clinical; 160 mg): 36.1 L
- AUC (clinical; 160 mg, AUC (AUC24)): 22300 ng·h/mL
- AUC(0-inf) (clinical; 160 mg): 20700 ng·h/mL
- Cmax (clinical; 160 mg, Cmax): 7300 ng/mL
- Vd/F (clinical; 160 mg): 40.7 L
- Tmax (clinical; 160 mg, tmax): 0.75 h
- Cmax (clinical; 180 mg): 8048.8 ng/mL
- Tmax (clinical; 180 mg): 1.00 h
- Vss/F (clinical; 180 mg): 45.6 L
- AUC (clinical; 180 mg, AUC (AUC24)): 24000 ng·h/mL
- AUC(0-inf) (clinical; 180 mg): 25600 ng·h/mL
- Cmax (clinical; 180 mg, Cmax): 8400 ng/mL
- Vd/F (clinical; 180 mg): 54.6 L
- Tmax (clinical; 180 mg, tmax): 1.07 h
- Cmax (clinical; 240 mg): 11263 ng/mL
- Vss/F (clinical; 240 mg): 31.3 L
- AUC (clinical; 240 mg, AUC (AUC24)): 35000 ng·h/mL
- AUC(0-inf) (clinical; 240 mg): 28300 ng·h/mL
- Cmax (clinical; 240 mg, Cmax): 8390 ng/mL
- Vd/F (clinical; 240 mg): 54.6 L
- Tmax (clinical; 240 mg, tmax): 1.06 h
- oral clearance from the plasma (clinical; po): 7.3 to 15.1 L/h
- Tmax (clinical; po, tmax): ~1 h
- absorption from the colonic region [1]: very poor
